Consider two molecules from ChEMBL document CHEMBL1201862, “PubChem BioAssay data set” (2004).

Activity calls are given as the source filed them.

Experiment [1] deals with T1, Streptokinase A (Streptococcus pyogenes serotype M1, UniProt P10520).
T1 sequence (P10520 whole entry): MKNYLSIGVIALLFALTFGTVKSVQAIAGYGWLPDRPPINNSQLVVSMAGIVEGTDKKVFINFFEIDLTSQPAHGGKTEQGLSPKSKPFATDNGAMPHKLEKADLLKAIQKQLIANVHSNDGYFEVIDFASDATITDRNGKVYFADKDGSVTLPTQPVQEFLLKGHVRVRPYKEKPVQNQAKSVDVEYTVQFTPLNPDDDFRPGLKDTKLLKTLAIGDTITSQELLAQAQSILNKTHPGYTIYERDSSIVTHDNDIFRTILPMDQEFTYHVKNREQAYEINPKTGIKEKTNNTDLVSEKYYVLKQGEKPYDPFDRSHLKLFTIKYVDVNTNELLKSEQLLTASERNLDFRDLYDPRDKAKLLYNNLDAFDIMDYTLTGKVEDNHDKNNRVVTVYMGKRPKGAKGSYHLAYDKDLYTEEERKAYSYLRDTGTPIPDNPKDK
The experiment in a line: S. pyogenes streptokinase expression inhibitors, potency, dose response, plasminogen activation absorbance, OD405 (AID 1914).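 Also: secreted streptokinase activity via plasminogen activation per viability signal from cell pellet.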 It is filed as functional, Streptococcus pyogenes M1 GAS.

Experiment [2] addresses T2, Ubiquitin-conjugating enzyme E2 N (Homo sapiens, UniProt P61088).
T2 sequence (P61088 whole entry): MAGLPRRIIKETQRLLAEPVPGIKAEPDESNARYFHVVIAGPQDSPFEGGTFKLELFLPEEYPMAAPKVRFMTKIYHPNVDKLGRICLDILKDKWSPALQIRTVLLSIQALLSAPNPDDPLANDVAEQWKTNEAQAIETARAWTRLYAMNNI
It is filed as functional.

Experiment [3] relates to Streptococcus sp. 'group A'. Nature of the experiment: growth inhibition of control SK(-) GAS strain, dose response, counter-screen for streptokinase expression inhibitor project, luminescence, kanamycin, BacTiterGlo, confirmation (AID 1900). It is filed as functional, organism-based.
The target in experiment [4] is T3, Bcl-2-related protein A1 (Mus musculus, UniProt Q07440).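 Also: confirmatory dose–response counterscreen on Bfl-1, used to check hits from a UBC13 polyubiquitin inhibitor campaign.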
T3 sequence (Q07440 whole entry): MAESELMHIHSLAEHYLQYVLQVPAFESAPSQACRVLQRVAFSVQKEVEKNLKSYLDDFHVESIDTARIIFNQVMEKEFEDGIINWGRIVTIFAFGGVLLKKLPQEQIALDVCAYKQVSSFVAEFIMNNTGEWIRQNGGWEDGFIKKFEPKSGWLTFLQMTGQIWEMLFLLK
It counts as functional.

Experiment [5] is described as follows: Luminescence Cell-Based Dose Retest to Confirm Inhibitors of Cancer Stem Cells. [Related pubchem assays (depositor defined):AID2717, AID2721]. It counts as functional. The following applies: Homo sapiens.
For experiment [6], the target named is Cysteine protease ATG4B (Homo sapiens, UniProt Q9Y4P1). It is filed as functional.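 Also: Fluorescence-based dose-response confirmation assay measuring inhibition of ATG4B activity.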
Chain of Cysteine protease ATG4B (Q9Y4P1 whole entry): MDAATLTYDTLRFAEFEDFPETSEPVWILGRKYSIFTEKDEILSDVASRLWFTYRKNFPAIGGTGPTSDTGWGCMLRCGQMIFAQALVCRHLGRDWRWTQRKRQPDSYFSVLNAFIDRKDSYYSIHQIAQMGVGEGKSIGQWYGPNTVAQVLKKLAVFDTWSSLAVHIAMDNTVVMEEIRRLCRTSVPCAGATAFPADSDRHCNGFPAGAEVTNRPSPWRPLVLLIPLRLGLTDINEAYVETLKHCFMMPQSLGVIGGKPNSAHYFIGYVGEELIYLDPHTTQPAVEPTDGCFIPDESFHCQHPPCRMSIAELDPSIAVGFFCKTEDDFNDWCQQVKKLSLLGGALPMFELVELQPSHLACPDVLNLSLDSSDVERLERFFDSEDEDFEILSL
Experiment [7] deals with Phospholipase A2 (Homo sapiens, UniProt P04054). It is filed as functional.
Chain of Phospholipase A2 (P04054 whole entry): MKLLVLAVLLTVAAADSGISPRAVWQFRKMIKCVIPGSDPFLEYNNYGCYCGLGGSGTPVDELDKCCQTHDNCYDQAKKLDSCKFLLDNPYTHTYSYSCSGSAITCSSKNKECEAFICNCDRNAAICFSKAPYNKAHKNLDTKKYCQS
The subject of experiment [8] is Streptococcus. The experiment in a line: Group A Streptococcus viability loss, dose response, counter-screen for streptokinase expression inhibitor project, luminescence, BacTiterGlo (AID 1915).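 Also: potency for reduction of bacterial viability or growth.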 It counts as functional, organism-based.
The target in experiment [9] is T4, Replicative DNA helicase DnaB (Mycobacterium tuberculosis, UniProt P9WMR3).
T4 sequence (P9WMR3 whole entry): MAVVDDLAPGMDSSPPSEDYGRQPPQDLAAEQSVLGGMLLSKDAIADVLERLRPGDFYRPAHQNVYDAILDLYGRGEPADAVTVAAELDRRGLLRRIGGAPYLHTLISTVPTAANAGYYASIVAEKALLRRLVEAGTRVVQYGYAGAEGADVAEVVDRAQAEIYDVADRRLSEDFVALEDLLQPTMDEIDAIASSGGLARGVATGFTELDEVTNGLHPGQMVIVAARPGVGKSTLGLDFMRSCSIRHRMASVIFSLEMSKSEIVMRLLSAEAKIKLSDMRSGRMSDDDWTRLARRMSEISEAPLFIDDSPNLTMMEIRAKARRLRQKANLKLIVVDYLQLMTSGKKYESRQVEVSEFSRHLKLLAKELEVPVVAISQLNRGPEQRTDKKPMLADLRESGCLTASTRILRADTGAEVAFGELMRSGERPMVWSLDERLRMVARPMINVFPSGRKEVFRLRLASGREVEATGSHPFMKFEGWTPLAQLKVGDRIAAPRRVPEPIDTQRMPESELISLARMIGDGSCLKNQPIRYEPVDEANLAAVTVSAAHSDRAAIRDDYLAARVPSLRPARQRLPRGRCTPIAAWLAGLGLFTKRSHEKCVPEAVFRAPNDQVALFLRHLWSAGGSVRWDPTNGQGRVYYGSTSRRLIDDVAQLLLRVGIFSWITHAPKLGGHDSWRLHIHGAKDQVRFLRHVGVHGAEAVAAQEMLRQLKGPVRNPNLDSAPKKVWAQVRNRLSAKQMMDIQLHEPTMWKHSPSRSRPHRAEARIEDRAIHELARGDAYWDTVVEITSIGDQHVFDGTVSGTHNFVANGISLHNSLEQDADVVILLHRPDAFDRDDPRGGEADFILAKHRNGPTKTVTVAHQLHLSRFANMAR
The experiment in a line: DnaB intein splicing inhibitors, dose response, biochemical, cell-free fluorescence (AID 449749). It is filed as functional.

The target of experiment [10] is T5, Protein RecA (Mycobacterium tuberculosis, UniProt P9WHJ3).
T5 sequence (P9WHJ3 whole entry): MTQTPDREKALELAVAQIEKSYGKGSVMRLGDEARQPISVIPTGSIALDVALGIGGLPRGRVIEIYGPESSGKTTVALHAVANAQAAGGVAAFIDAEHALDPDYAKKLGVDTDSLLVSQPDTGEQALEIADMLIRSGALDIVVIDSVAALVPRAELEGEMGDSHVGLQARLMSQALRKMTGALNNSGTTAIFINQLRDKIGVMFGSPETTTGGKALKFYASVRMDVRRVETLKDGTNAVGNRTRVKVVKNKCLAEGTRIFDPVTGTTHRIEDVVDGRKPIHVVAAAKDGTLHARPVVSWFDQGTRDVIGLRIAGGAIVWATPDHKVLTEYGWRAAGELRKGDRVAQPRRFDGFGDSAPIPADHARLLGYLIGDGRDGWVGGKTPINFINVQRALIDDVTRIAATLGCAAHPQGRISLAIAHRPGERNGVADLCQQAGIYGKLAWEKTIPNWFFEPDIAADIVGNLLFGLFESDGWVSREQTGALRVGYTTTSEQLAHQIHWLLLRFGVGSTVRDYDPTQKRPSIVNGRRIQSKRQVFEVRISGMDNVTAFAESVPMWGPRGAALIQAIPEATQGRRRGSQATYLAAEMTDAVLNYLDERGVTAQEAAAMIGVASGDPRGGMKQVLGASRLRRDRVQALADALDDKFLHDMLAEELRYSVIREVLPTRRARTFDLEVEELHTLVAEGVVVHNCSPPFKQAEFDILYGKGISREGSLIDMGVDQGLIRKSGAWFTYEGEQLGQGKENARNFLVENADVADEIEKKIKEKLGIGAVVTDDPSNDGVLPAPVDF
The experiment in a line: Fluorescence Cell-Free Homogeneous Dose Retest to Identify Inhibitors of RecA-Intein Splicing Activity. [Related pubchem assays (depositor defined):AID2097, AID2223, AID489010, AID492950]. It counts as functional.

Experiment [11] has as its target T2, Ubiquitin-conjugating enzyme E2 N. It is filed as functional. This is another data set of the same source.
In experiment [12] the target is T6, Sentrin-specific protease 7 (Homo sapiens, UniProt Q9BQF6).
T6 sequence (Q9BQF6 whole entry): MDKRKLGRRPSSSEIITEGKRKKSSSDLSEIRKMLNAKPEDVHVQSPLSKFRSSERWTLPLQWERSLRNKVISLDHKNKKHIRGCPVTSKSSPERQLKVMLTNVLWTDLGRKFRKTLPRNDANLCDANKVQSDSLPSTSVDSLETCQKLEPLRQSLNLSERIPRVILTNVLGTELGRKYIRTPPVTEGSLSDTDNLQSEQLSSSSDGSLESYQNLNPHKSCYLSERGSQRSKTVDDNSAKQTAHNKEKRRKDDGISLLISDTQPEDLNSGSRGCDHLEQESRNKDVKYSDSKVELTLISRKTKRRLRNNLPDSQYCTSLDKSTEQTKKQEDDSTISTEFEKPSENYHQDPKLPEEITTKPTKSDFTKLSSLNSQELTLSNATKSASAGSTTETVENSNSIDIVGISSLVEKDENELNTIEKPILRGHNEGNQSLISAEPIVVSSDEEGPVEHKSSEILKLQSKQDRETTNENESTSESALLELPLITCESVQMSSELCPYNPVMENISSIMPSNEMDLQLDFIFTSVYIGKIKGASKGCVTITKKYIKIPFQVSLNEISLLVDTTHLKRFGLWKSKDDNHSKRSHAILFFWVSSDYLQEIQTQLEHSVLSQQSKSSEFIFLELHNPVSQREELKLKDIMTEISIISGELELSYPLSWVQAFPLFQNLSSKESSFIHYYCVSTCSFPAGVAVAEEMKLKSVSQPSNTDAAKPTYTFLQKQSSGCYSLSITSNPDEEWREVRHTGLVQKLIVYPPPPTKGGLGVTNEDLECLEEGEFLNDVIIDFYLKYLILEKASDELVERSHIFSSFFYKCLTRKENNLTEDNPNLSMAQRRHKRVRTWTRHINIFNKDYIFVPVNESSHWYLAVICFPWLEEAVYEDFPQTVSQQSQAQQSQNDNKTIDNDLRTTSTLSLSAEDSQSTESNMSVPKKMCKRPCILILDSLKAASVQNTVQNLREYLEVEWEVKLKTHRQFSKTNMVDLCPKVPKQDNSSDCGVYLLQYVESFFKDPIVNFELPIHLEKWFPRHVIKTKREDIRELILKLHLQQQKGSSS
Nature of the experiment: SENP7 protease inhibitors, SAR follow-up, biochemical, luminescence (AID 504497). It counts as functional.

In experiment [13] the target is T7, Sentrin-specific protease 8 (Homo sapiens, UniProt Q96LD8).
T7 sequence (Q96LD8 whole entry): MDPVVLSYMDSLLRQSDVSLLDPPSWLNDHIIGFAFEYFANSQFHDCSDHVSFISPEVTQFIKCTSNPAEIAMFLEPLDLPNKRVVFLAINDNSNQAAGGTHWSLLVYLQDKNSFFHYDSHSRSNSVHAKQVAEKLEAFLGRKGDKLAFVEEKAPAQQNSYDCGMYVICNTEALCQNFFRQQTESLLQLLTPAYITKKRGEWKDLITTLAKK
Nature of the experiment: SENP8 protease inhibitors, SAR follow-up, biochemical, luminescence (AID 504501). It counts as functional.

The target of experiment [14] is T8, Caspase-3 (Homo sapiens, UniProt P42574).
T8 sequence (P42574 whole entry): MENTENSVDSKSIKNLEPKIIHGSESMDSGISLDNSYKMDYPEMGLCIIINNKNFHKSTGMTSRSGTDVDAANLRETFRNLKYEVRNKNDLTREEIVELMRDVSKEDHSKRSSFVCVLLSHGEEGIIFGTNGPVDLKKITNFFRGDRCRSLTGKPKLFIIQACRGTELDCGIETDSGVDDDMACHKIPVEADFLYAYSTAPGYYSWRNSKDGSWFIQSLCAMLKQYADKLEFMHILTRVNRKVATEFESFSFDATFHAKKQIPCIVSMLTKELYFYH
The experiment in a line: SAR Analysis of small molecule inhibitors of Sentrin-specific proteases (SENPs) using a Caspase-3 Selectivity assay. [Related pubchem assays (depositor defined):AID2540, AID2599, AID434973, AID489001]. It counts as functional.

The target of experiment [15] is T9, Sentrin-specific protease 6 (Homo sapiens, UniProt Q9GZR1).
T9 sequence (Q9GZR1 whole entry): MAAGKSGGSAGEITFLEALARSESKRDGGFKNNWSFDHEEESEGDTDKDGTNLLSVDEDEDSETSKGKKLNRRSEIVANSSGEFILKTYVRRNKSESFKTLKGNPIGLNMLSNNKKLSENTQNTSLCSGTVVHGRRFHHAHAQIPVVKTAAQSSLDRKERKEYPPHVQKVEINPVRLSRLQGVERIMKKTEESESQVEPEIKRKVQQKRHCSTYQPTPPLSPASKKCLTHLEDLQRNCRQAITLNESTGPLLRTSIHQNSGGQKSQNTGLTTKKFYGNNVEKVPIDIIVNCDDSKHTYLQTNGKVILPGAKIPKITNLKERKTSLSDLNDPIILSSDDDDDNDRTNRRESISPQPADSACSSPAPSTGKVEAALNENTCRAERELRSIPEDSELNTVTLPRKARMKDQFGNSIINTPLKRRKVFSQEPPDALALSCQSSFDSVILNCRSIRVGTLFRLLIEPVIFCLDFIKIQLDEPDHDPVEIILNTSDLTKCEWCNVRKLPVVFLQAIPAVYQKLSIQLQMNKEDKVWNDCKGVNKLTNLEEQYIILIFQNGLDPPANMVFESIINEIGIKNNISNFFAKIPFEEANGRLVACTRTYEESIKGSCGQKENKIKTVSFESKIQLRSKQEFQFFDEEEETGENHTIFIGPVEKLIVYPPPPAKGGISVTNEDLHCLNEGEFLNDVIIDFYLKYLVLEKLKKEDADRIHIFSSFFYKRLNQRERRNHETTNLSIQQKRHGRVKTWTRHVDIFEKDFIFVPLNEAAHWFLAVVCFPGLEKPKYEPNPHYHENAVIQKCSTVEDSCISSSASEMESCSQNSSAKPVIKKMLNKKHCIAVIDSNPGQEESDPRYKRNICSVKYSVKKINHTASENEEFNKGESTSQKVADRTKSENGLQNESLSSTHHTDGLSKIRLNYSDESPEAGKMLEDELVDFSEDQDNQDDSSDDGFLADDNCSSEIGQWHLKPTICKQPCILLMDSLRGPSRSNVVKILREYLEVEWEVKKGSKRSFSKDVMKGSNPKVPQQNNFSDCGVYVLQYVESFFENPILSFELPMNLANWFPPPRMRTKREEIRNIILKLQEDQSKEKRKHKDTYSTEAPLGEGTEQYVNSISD
The experiment in a line: SAR Analysis of small molecule inhibitors of Sentrin-specific protease 6 (SENP6) using a Luminescent assay. [Related pubchem assays (depositor defined):AID2582, AID2599]. It counts as functional.

With `CCCCCCCCOC(=O)c1c(CSC(=N)N)n(C)c2cc(Br)c(OC(C)=O)cc12`, the EC50 in experiment [1] was > 150 µM (not active); in [3] it was 2.05 µM (active); in experiment [8], 8.01 µM (active); in experiment [10] it was 1.57 µM (active). For the same molecule, the IC50 in experiment [2] is 12.4 µM (active); in experiment [4], > 20 µM (inactive); in experiment [6] it was 8.63 µM (active); in experiment [7], 52.2 µM (inactive); in experiment [11] it was 4.22 µM (active). In addition, the values for the AC50 in [5] and in experiment [9] were 2.7 µM (active) and 4.36 µM (active), respectively.

For the molecule `Cc1ccc(/C=C/c2nc(-c3ccc(NS(=O)(=O)c4cccs4)cc3)no2)cc1`, the IC50 in experiment [12], in [13], in experiment [14] and in experiment [15] was > 99 µM (inactive) in each case.
